Assay results reported in patent publication US20250115598A1 (Anaxis Pharma Pty Ltd, priority 2021, published 2025).
pIC50, pKd: −log10 of the molar value.

Experiments:
human MLKL (full length) = human MLKL (full length) (Homo sapiens (Human), UniProt Q8NB16); assay: KINOMEscan binding assay, human MLKL (full length); details: hMLKL, Table 25; read-out: MLKL (KD)
Method in brief: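 Compound dilutions (11 points, 3-fold, mostly from 30,000 nM, 1% DMSO final) competed with immobilized ligand for DNA- or phage-tagged protein, and bead-bound protein was measured by qPCR. Kd values came from Hill-equation fits with slope −1 (Levenberg-Marquardt).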

endogenous MLKL in MDF = endogenous MLKL in MDF (Mus musculus (Mouse), UniProt Q9D2Y4); assay: Degradation assay: endogenous MLKL in MDF (western blot); details: MDF cells, 24 h incubation with compound, MLKL adjusted for loading with GAPDH, normalized to DMSO only control, read-out: Degradation of endogenous MLKL in MDF (DC50 cell-based assay)
Method in brief: (§1)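 Western blot band intensity of MLKL, adjusted to GAPDH loading and normalized to DMSO-only wells, gave percent degradation. Compound exposure lasted 24 h at final concentrations of 10–0.016 μM in 1:5 steps, in mouse dermal fibroblasts or human U937 cells.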

[1] = test system: Immortalised Mouse Dermal Fibroblasts (MDFs); assay: Cellular assay: inhibition of TSI induced necroptosis, CellTitre-Glo viability; details: Mus musculus, Fibroblast; MDF, 3 hours TSI cocktail, Table 27; read-out: Inhibition of TSI-induced necroptosis (IC50 cell-based assay) in MDF
Method in brief: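 Necroptosis induced for 3 h with TSI: rhTNF 100 ng/ml, Smac mimetic 500 nM, caspase inhibitor IDN-6556 10 μM. Mouse dermal fibroblasts had received compound (36 μM top, ten three-fold steps) 30 min beforehand. ATP-based viability scaled between untreated and TSI-only wells; IC50 taken as 4-parameter curve inflection.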

endogenous MLKL in U937 = endogenous MLKL in U937 (Homo sapiens (Human), UniProt Q8NB16); assay: Degradation assay: endogenous MLKL in U937 (western blot); details: U937, 24 h incubation, read-out: Degradation of endogenous MLKL in U937 (DC50 cell-based assay)
Method in brief: as §1

Chain of human MLKL (full length) (Q8NB16 whole entry): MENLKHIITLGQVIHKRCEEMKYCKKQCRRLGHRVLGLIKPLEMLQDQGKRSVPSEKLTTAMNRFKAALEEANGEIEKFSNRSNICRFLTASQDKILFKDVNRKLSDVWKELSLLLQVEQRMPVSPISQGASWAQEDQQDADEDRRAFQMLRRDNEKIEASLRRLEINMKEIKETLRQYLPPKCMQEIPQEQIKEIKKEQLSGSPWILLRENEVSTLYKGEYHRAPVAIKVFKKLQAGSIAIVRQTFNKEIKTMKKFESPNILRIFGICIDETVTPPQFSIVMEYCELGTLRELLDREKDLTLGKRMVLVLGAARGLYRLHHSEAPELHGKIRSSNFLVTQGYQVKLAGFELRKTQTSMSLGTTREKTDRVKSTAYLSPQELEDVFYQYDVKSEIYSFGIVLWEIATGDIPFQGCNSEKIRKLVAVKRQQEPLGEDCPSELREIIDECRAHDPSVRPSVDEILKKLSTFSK
Chain of endogenous MLKL in U937 (Q8NB16 whole entry): as above
Chain of endogenous MLKL in MDF (Q9D2Y4 whole entry): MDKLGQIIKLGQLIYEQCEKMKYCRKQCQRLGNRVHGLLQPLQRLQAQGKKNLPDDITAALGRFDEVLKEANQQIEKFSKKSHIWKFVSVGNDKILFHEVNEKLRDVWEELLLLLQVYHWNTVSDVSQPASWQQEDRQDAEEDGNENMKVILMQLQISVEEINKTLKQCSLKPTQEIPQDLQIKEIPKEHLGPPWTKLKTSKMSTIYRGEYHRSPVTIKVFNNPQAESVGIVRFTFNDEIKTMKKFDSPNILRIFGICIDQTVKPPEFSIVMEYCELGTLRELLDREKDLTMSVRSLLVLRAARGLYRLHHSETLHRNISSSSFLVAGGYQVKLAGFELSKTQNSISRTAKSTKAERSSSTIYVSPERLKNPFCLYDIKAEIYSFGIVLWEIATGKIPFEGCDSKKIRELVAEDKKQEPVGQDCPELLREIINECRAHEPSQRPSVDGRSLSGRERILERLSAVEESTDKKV

C[C@H](Oc1cc(-c2nn(C)c3c(-c4cnn(C5CCN(Cc6cccc(CNc7cccc8c7C(=O)N(C7CCC(=O)NC7=O)C8=O)c6)CC5)c4)cnc(N)c23)ccc1NS(=O)(=O)C(F)F)c1ccc(F)cc1 (stereo partly drawn) [Compound 1095, N-(4-{4-amino-7-[1-(1-{[3-{{[2-(2,6-dioxopiperidin-3-yl)-1,3-dioxo-2,3-dihydro-1H-isoindol-4-yl]amino}methyl)phenyl]methyl}piperidin-4-yl)-1H-pyrazol-4-yl]-1-methyl-1H-pyrazolo[4,3-c]pyridin-3-yl}-2-[(1S)-1-(4-fluorophenyl)ethoxy]phenyl)-1,1-difluoromethane-sulfonamide] gave a pKd (human MLKL (full length)) of 6.00 to 8.00, a DC50 (endogenous MLKL in MDF) of under 1000 nM and a pIC50 [1] of over 6.00. It also gave a DC50 (endogenous MLKL in U937) of under 1000 nM.
C[C@H](Oc1cc(-c2nn(C)c3c(-c4cnn(C5CCN(CCCN6CCN(C(=O)COc7cccc8c7C(=O)N(C7CCC(=O)NC7=O)C8=O)CC6)CC5)c4)cnc(N)c23)ccc1NS(=O)(=O)C(F)F)c1ccc(F)cc1 (stereo partly drawn) [Compound 1099, N-(4-{4-amino-7-[1-(1-{3-[4-(2-{[2-(2,6-dioxopiperidin-3-yl)-1,3-dioxo-2,3-dihydro-1H-isoindol-4-yl]oxy}acetyl)piperazin-1-yl]propyl}piperidin-4-yl)-1H-pyrazol-4-yl]-1-methyl-1H-pyrazolo[4,3-c]pyridin-3-yl}-2-[(1S)-1-(4-fluorophenyl)ethoxy]phenyl)-1,1-difluoromethanesulfonamide] was tested, and the pKd (human MLKL (full length)) was over 8.00, the DC50 (endogenous MLKL in MDF) was 1000 to 10000 nM and the pIC50 [1] was 5.00 to 6.00. It also gave a DC50 (endogenous MLKL in U937) of under 1000 nM.
Molecule Cc1ncsc1-c1ccc(CNC(=O)[C@@H]2C[C@@H](O)CN2C(=O)[C@@H](NC(=O)CCCCCOc2ccc(-c3cnc(N)c4c(-c5ccc(NS(=O)(=O)C(F)F)c(O[C@@H](C)c6ccc(F)cc6)c5)nn(C)c34)cc2)C(C)(C)C)cc1 [Compound 1042, (2S,4R)-1-[(2S)-2-[6-(4-{4-amino-3-[4-(difluoromethanesulfonamido)-3-[(1S)-1-(4-fluorophenyl)ethoxy]phenyl]-1-methyl-1H-pyrazolo[4,3-c]pyridin-7-yl}phenoxy)hexanamido]-3,3-dimethylbutanoyl]-4-hydroxy-N-{[4-(4-methyl-1,3-thiazol-5-yl)phenyl]methyl}pyrrolidine-2-carboxamide] has a pKd (human MLKL (full length)) of 6.00 to 8.00, a DC50 (endogenous MLKL in MDF) of under 1000 nM and a pIC50 [1] of 5.00 to 6.00. The DC50 (endogenous MLKL in U937) was under 1000 nM.
C[C@H](Oc1cc(-c2nn(C)c3c(-c4cnn(C5CCC(C(=O)N6CCN(c7cccc8c7C(=O)N(C7CCC(=O)NC7=O)C8=O)CC6)N(C)C5)c4)cnc(N)c23)ccc1NS(=O)(=O)C(F)F)c1ccc(F)cc1 (stereo partly drawn) [Compound 1121, N-(4-{4-amino-7-[1-(6-{4-[2-(2,6-dioxopiperidin-3-yl)-1,3-dioxo-2,3-dihydro-1H-isoindol-4-yl]piperazine-1-carbonyl}-1-methylpiperidin-3-yl)-1H-pyrazol-4-yl]-1-methyl-1H-pyrazolo[4,3-c]pyridin-3-yl}-2-[(1S)-1-(4-fluorophenyl)ethoxy]phenyl)-1,1-difluoromethanesulfonamide] showed a pKd (human MLKL (full length)) of over 8.00, a DC50 (endogenous MLKL in MDF) of under 1000 nM and a pIC50 [1] of over 6.00. For the same molecule, the DC50 (endogenous MLKL in U937) was under 1000 nM.
Work on C[C@H](Oc1cc(-c2nn(C)c3c(-c4cnn(C5CCN(C(=O)c6ccc(CNc7cccc8c7C(=O)N(C7CCC(=O)NC7=O)C8=O)cc6)CC5)c4)cnc(N)c23)ccc1NS(=O)(=O)C(F)F)c1ccc(F)cc1 (stereo partly drawn) [Compound 1093, N-{4-[4-amino-7-(1-{1-[4-({[2-(2,6-dioxopiperidin-3-yl)-1,3-dioxo-2,3-dihydro-1H-isoindol-4-yl]amino}methyl)benzoyl]piperidin-4-yl}-1H-pyrazol-4-yl)-1-methyl-1H-pyrazolo[4,3-c]pyridin-3-yl]-2-[(1S)-1-(4-fluorophenyl)ethoxy]phenyl}-1,1-difluoromethanesulfonamide] yielded a pKd (human MLKL (full length)) of 6.00 to 8.00, a DC50 (endogenous MLKL in MDF) of under 1000 nM and a pIC50 [1] of over 6.00. It also gave a DC50 (endogenous MLKL in U937) of under 1000 nM.
C[C@H](Oc1cc(-c2nn(C)c3c(-c4cnn(C5CCN(C(=O)C6CN(c7cccc8c7C(=O)N(C7CCC(=O)NC7=O)C8=O)C6)CC5)c4)cnc(N)c23)ccc1NS(=O)(=O)C(F)F)c1ccc(F)cc1 (stereo partly drawn) [Compound 1051, N-(4-{4-amino-7-[1-(1-{1-[2-(2,6-dioxopiperidin-3-yl)-1,3-dioxo-2,3-dihydro-1H-isoindol-4-yl]azetidine-3-carbonyl}piperidin-4-yl)-1H-pyrazol-4-yl]-1-methyl-1H-pyrazolo[4,3-c]pyridin-3-yl}-2-[(1S)-1-(4-fluorophenyl)ethoxy]phenyl)-1,1-difluoromethane-sulfonamide] showed a pKd (human MLKL (full length)) of 6.00 to 8.00, a DC50 (endogenous MLKL in MDF) of under 1000 nM and a pIC50 [1] of 5.00 to 6.00. For the same molecule, the DC50 (endogenous MLKL in U937) was 1000 to 10000 nM.
For C[C@H](Oc1cc(-c2nn(C)c3c(-c4cnn(C5CCN(CCC6CCN(c7cccc8c7C(=O)N(C7CCC(=O)NC7=O)C8=O)CC6)CC5)c4)cnc(N)c23)ccc1NS(=O)(=O)C(F)F)c1ccc(F)cc1 (stereo partly drawn) [Compound 1076, N-[4-(4-amino-7-{1-[1-(2-{1-[2-(2,6-dioxopiperidin-3-yl)-1,3-dioxo-2,3-dihydro-1H-isoindol-4-yl]piperidin-4-yl}ethyl)piperidin-4-yl]-1H-pyrazol-4-yl}-1-methyl-1H-pyrazolo[4,3-c]pyridin-3-yl)-2-[(1S)-1-(4-fluorophenyl)ethoxy]phenyl]-1,1-difluoromethane-sulfonamide], the pKd (human MLKL (full length)) was over 8.00, the DC50 (endogenous MLKL in MDF) was 1000 to 10000 nM and the pIC50 [1] was over 6.00. It also gave a DC50 (endogenous MLKL in U937) of under 1000 nM.
C[C@H](Oc1cc(-c2nn(C)c3c(-c4cnn(C5CCN(C(=O)[C@H]6C[C@H](Nc7cccc8c7C(=O)N(C7CCC(=O)NC7=O)C8=O)C6)CC5)c4)cnc(N)c23)ccc1NS(=O)(=O)C(F)F)c1ccc(F)cc1 (stereo partly drawn) [Compound 1047, N-{4-[4-amino-1-methyl-7-(1-{1-[(trans)-3-{[2-(2,6-dioxopiperidin-3-yl)-1,3-dioxo-2,3-dihydro-1H-isoindol-4-yl]amino}cyclobutanecarbonyl]piperidin-4-yl}-1H-pyrazol-4-yl)-1H-pyrazolo[4,3-c]pyridin-3-yl]-2-[(1 S)-1-(4-fluorophenyl)ethoxy]phenyl}-1,1-difluoromethanesulfonamide] was tested, and the pKd (human MLKL (full length)) was over 8.00, the DC50 (endogenous MLKL in MDF) was under 1000 nM and the pIC50 [1] was over 6.00. For the same molecule, the DC50 (endogenous MLKL in U937) was under 1000 nM.
In the case of C[C@H](Oc1cc(-c2nn(C)c3c(-c4cnn(C5CCN(C(=O)C6CCN(c7cccc8c7C(=O)N(C7CCC(=O)NC7=O)C8=O)C6)CC5)c4)cnc(N)c23)ccc1NS(=O)(=O)C(F)F)c1ccc(F)cc1 (stereo partly drawn) [Compound 1054, N-(4-{4-amino-7-[1-(1-{1-[2-(2,6-dioxopiperidin-3-yl)-1,3-dioxo-2,3-dihydro-1H-isoindol-4-yl]pyrrolidine-3-carbonyl}piperidin-4-yl)-1H-pyrazol-4-yl]-1-methyl-1H-pyrazolo [4,3-c]pyridin-3-yl}-2-[(1S)-1-(4-fluorophenyl)ethoxy]phenyl)-1,1-difluoromethanesulfonamide], the pKd (human MLKL (full length)) was 6.00 to 8.00, the DC50 (endogenous MLKL in MDF) was under 1000 nM and the pIC50 [1] was over 6.00. It also gave a DC50 (endogenous MLKL in U937) of under 1000 nM.
Molecule Cn1nc(-c2ccc(NS(=O)(=O)C(F)F)c(F)c2)c2c(N)ncc(-c3cnn(C4CCN(C(=O)CCC5CCN(c6cccc7c6C(=O)N(C6CCC(=O)NC6=O)C7=O)CC5)CC4)c3)c21 (stereo not drawn) [Compound 1113, N-[4-(4-amino-7-{1-[1-(3-{1-[2-(2,6-dioxopiperidin-3-yl)-1,3-dioxo-2,3-dihydro-1H-isoindol-4-yl]piperidin-4-yl}propanoyl)piperidin-4-yl]-1H-pyrazol-4-yl}-1-methyl-1H-pyrazolo[4,3-c]pyridin-3-yl}-2-fluorophenyl]-1,1-difluoromethanesulfonamide] has a pKd (human MLKL (full length)) of over 8.00, a DC50 (endogenous MLKL in MDF) of under 1000 nM and a pIC50 [1] of 5.00 to 6.00. For the same molecule, the DC50 (endogenous MLKL in U937) was under 1000 nM.
For C[C@H](Oc1cc(-c2nn(C)c3c(-c4cnn(C5CCN(C(=O)[C@H]6C[C@@H]6C6CCN(c7cccc8c7C(=O)N(C7CCC(=O)NC7=O)C8=O)CC6)CC5)c4)cnc(N)c23)ccc1NS(=O)(=O)C(F)F)c1ccc(F)cc1 (stereo in doubt) [Compound 1130, N-[4-(4-amino-7-{1-[1-(2-{1-[2-(2,6-dioxopiperidin-3-yl)-1,3-dioxo-2,3-dihydro-1H-isoindol-4-yl]piperidin-4-yl}-(trans)-cyclopropanecarbonyl)piperidin-4-yl]-1H-pyrazol-4-yl}-1-methyl-1H-pyrazolo[4,3-c]pyridin-3-yl)-2-[(1S)-1-(4-fluorophenyl)ethoxy]phenyl]-1,1-difluoromethane-sulfonamide], the pKd (human MLKL (full length)) was 6.00 to 8.00, the DC50 (endogenous MLKL in MDF) was under 1000 nM and the pIC50 [1] was over 6.00. The DC50 (endogenous MLKL in U937) was under 1000 nM.
C[C@H](Oc1cc(-c2nn(C)c3c(-c4cnn(C5CCN(CC6CCN(c7cccc8c7C(=O)N(C7CCC(=O)NC7=O)C8=O)C6)CC5)c4)cnc(N)c23)ccc1NS(=O)(=O)C(F)F)c1ccc(F)cc1 (stereo partly drawn) [Compound 1083, N-[4-(4-amino-7-{1-[1-({1-[2-(2,6-dioxopiperidin-3-yl)-1,3-dioxo-2,3-dihydro-1H-isoindol-4-yl]pyrrolidin-3-yl}methyl)piperidin-4-yl]-1H-pyrazol-4-yl}-1-methyl-1H-pyrazolo[4,3-c]pyridin-3-yl}-2-[(1S)-1-(4-fluorophenyl)ethoxy]phenyl]-1,1-difluoromethanesulfonamide] gave a pKd (human MLKL (full length)) of over 8.00, a DC50 (endogenous MLKL in MDF) of under 1000 nM and a pIC50 [1] of over 6.00. It also gave a DC50 (endogenous MLKL in U937) of under 1000 nM.
